Measured values taken from PMC6268027, “Acetylcholinesterase-Inhibiting Activity of Salicylanilide N-Alkylcarbamates and Their Molecular Docking” (Molecules, 2012).

How the values were obtained:
[1] = molecular target: T1, acetylcholinesterase (AChE) from electric eel (Electrophorus electricus, UniProt O42275); assay: AChE inhibition, spectrophotometric Ellman's method; format: biochemical, Electrophorus electricus L.; settings: for IC50: electric eel AChE, Ellman's method, mean ± SD (n = 3 experiments); for AChE inhibition, fold higher than RIV: IC50 compared with rivastigmine
T1 construct: purchased Sigma
Description: The ability of the tested compounds to inhibit acetylcholinesterase (purchased from Sigma) from electric eel (Electrophorus electricus L.) was tested. […] The IC50 values were determined by the spectrophotometric Ellman’s method.
The IC50 values were determined using the spectrophotometric Ellman’s method, which is a simple, rapid and direct method to determine the SH and -S-S- group content in proteins. This method is widely used for measuring of cholinesterase activity and effectivity of cholinesterase inhibitors. Cholinesterase activity is measured indirectly by quantifying the concentration of 5-thio-2-nitrobenzoic acid (TNB) ion formed in the reaction between the thiol reagent 5,5′-dithiobis-2-nitrobenzoic acid (DTNB) and thiocholine, a product of substrate (i.e., acetylthiocholine, ATCh) hydrolysis by cholinesterase. All tested compounds were dissolved in dioxane (concentration 0.01 M) and then diluted in demineralised water (concentration 0.001 M and 0.0001 M). The procedure of determination of IC50 is a slightly modified Ellman’s method according to Zdrazilova and described in detail in [49]. For determination of IC50 values the inhibition was determined for 25 different compound concentrations with three replicates.

[2] = Lipophilicity determination by RP-HPLC (capacity factor k / log k); format: physicochemical; settings: Symmetry C18, MeOH 70% / H2O 30%, column 45 °C
Text: A Waters Alliance 2695 XE HPLC separation module and a Waters Photodiode Array Detector 2996 (Waters Corp., Milford, MA, USA) were used. A Symmetry® C18 5 μm, 4.6 × 250 mm chromatographic column, Part No. WAT054275 (Waters Corp., Milford, MA, USA) was used. The HPLC separation process was monitored by Empower™ 2 Chromatography Data Software, Waters 2009 (Waters Corp., Milford, MA, USA). A mixture of MeOH p.a. (70%) and H2O-HPLC–Mili-Q Grade (30%) was used as a mobile phase. The total flow of the column was 1.0 mL/min, injection volume, 30 μL, column temperature, 45 °C and sample temperature, 10 °C. The detection wavelength of 210 nm was chosen. The KI methanolic solution was used for the dead time (tD) determination. The retention times (tR) were measured in minutes. The capacity factors k were calculated using the Empower™ 2 Chromatography Data Software according to formula k = (tR− tD)/tD, where tR is the retention time of the solute, whereas tD denotes the dead time obtained using an unretained analyte. Log k, calculated from the capacity factor k, is used as the lipophilicity index converted to log P scale.

T1 sequence (O42275 24-633): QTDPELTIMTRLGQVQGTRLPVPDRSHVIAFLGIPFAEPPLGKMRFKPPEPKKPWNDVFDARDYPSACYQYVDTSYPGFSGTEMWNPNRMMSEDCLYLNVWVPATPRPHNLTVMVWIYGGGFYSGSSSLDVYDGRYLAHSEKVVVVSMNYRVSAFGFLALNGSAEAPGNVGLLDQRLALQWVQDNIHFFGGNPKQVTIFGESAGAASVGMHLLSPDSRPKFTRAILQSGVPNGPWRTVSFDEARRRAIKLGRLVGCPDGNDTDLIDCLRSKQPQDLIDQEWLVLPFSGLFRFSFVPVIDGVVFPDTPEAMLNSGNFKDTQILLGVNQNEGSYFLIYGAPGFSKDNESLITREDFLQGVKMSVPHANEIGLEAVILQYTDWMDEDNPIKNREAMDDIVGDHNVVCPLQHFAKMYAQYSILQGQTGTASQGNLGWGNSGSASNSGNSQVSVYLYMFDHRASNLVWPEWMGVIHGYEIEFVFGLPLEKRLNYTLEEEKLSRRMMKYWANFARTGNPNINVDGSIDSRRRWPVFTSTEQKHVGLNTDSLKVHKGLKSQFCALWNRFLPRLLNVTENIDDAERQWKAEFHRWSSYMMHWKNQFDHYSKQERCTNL

SMILES	IC50 [1] [µM]	log k [2]	AChE inhibition, fold higher than RIV [1] [fold]
CCCCCCCCCNC(=O)Oc1ccc(Cl)cc1C(=O)Nc1ccc(Cl)c(Cl)c1 [6g]	43.9 ± 0.32	1.0880	
CCCCCCCCCCCNC(=O)Oc1ccc(Cl)cc1C(=O)Nc1cccc(Cl)c1 [4i]	56.9 ± 0.48	0.7902	
CCCCCNC(=O)Oc1ccc(Cl)cc1C(=O)Nc1ccc(Cl)cc1 [5c]	41.7 ± 0.29	0.7838	
CCCCCCCNC(=O)Oc1ccc(Cl)cc1C(=O)Nc1ccc(Cl)cc1 [5e]	49.4 ± 0.31	0.7872	
CCCCCCCCCCNC(=O)Oc1ccc(Cl)cc1C(=O)Nc1ccc(Cl)c(Cl)c1 [6h]	21.8 ± 0.2	1.0894	23
CCCCNC(=O)Oc1ccc(Cl)cc1C(=O)Nc1cccc(Cl)c1 [4b]		0.7611	
CCNC(=O)Oc1ccc(Cl)cc1C(=O)Nc1ccc(Cl)cc1 [5a]	59.1 ± 0.33	0.7695	
CCCCCCCCNC(=O)Oc1ccc(Cl)cc1C(=O)Nc1ccc(Cl)c(Cl)c1 [6f]	32.1 ± 0.29	1.0845	
CCCCCCCCCNC(=O)Oc1ccc(Cl)cc1C(=O)Nc1ccc(Cl)cc1 [5g]	52.2 ± 0.39	0.7919	
CCCCNC(=O)Oc1ccc(Cl)cc1C(=O)Nc1ccc(Cl)cc1 [5b]	48.1 ± 0.31	0.7759	
CCNC(=O)Oc1ccc(Cl)cc1C(=O)Nc1cccc(Cl)c1 [4a]		0.7523	
CCCCCNC(=O)Oc1ccc(Cl)cc1C(=O)Nc1ccc(Cl)c(Cl)c1 [6c]	56 ± 0.42	1.0601	
CCCCCCNC(=O)Oc1ccc(Cl)cc1C(=O)Nc1cccc(Cl)c1 [4d]	35.1 ± 0.31	0.7758	
CCCCCCCCNC(=O)Oc1ccc(Cl)cc1C(=O)Nc1ccc(Cl)cc1 [5f]	62.5 ± 0.41	0.7899	
CCCCCCCCCCCNC(=O)Oc1ccc(Cl)cc1C(=O)Nc1ccc(Cl)c(Cl)c1 [6i]	29.9 ± 0.22	1.0903	16
CCCCCCCNC(=O)Oc1ccc(Cl)cc1C(=O)Nc1ccc(Cl)c(Cl)c1 [6e]	36.7 ± 0.28	1.0667	
CCCCCCCCNC(=O)Oc1ccc(Cl)cc1C(=O)Nc1cccc(Cl)c1 [4f]	69.9 ± 0.49	0.7831	
CCCCCCNC(=O)Oc1ccc(Cl)cc1C(=O)Nc1ccc(Cl)cc1 [5d]	31 ± 0.29	0.7859	
CCCCCCCCCCCNC(=O)Oc1ccc(Cl)cc1C(=O)Nc1ccc(Cl)cc1 [5i]	44.3 ± 0.33	0.7947	
CCCCCCNC(=O)Oc1ccc(Cl)cc1C(=O)Nc1ccc(Cl)c(Cl)c1 [6d]	41.2 ± 0.36	1.0611	
CCCCCCCNC(=O)Oc1ccc(Cl)cc1C(=O)Nc1cccc(Cl)c1 [4e]	61.7 ± 0.5	0.7772	
CCCCNC(=O)Oc1ccc(Cl)cc1C(=O)Nc1ccc(Cl)c(Cl)c1 [6b]	64.7 ± 0.79	1.0457	
CCCCCNC(=O)Oc1ccc(Cl)cc1C(=O)Nc1cccc(Cl)c1 [4c]	50.4 ± 0.48	0.7732	
CCCCCCCCCNC(=O)Oc1ccc(Cl)cc1C(=O)Nc1cccc(Cl)c1 [4g]	34.2 ± 0.26	0.7837	
CCCCCCCCCCNC(=O)Oc1ccc(Cl)cc1C(=O)Nc1cccc(Cl)c1 [4h]	52.7 ± 0.45	0.7873	
CCCCCCCCCCNC(=O)Oc1ccc(Cl)cc1C(=O)Nc1ccc(Cl)cc1 [5h]	64.6 ± 0.41	0.7942	
CCNC(=O)Oc1ccc(Cl)cc1C(=O)Nc1ccc(Cl)c(Cl)c1 [6a]	67.3 ± 0.52	1.0234	
